Reference: US10555535B2, “Pest control composition and pest control method” (SUMITOMO CHEMICAL COMPANY, LIMITED, priority 2015, dated 2020)

Assays:
[1] = tested on: Diabrotica virgifera virgifera; assay: Test Example 13: treated corn seeds, controlling effect on Diabrotica virgifera virgifera larvae; format: in vivo
Procedure: (§1) If the effect by the combination of two active ingredients is greater than that of the estimated value E, which is calculated by the Colby's equation as follows, the effect is regarded as synergistic. E=X+Y−X·Y/100 wherein, • E=Controlling effect when using the mixture of the active ingredients A and B at the concentrations m and n (amount of the active ingredient), respectively. • X=Controlling effect when using the active ingredient A at the concentration m (amount of the active ingredient). • Y=Controlling effect when using the active ingredient B at the concentration n (amount of the active ingredient).
In a rotary seed treatment machine (trade name: HEGE11, manufactured by WINTERSTEIGER), corn seeds (variety: yellow dent corn) were treated by smearing treatment using the wettable powder of the present bacterial strain obtained in Formulation Example 13 or clothianidin flowable formulation (47.8% flowable formulation, trade name: NipsIt Inside Insecticide, Valent U.S.A. Corporation), or imidacloprid flowable formulation (48.7% flowable formulation, trade name: Gaucho 600, Bayer CropScience), so that the corn seeds thus treated retain the present bacterial strain, clothianidin or imidacloprid in the amount shown in Table 6.
In a rotary seed treatment machine (trade name: HEGE11, manufactured by WINTERSTEIGER), the corn seeds thus treated with clothianidin or imidacloprid were treated by wet powder coating with a wettable powder of the present bacterial strain as obtained in Formulation Example 13, so that the […] thus treated retain the present bacterial strain and clothianidin or the present bacterial strain and imidacloprid in the amount shown in Table 6.
Newly hatched larvae of Diabrotica virgifera virgifera are released (10 for each stalk of corn) on the 7th day after the seeding, and the number of living Diabrotica virgifera virgifera was counted on the 10th day after the release. Similar procedures were conducted using untreated corn seeds, instead of the treated corn seeds, as described above for the treated compartment (“untreated compartment”).
(§2) Based on the numbers of survivors in the treated compartment and the untreated compartment, the effect in the treated compartment was calculated by the following equation. Controlling effect=100×[(number of survivors in untreated compartment number of survivors in treated compartment)/number of survivors in untreated compartment]

Aphis gossypii = assay: Test Example 12: treated soybean seeds, controlling effect on Aphis gossypii; format: in vivo
Procedure: In a rotary seed treatment machine (trade name: HEGE11, manufactured by WINTERSTEIGER), soybean seeds (variety:“Hatayutaka”) were treated by smearing treatment using flowable formulation of the present bacterial strain obtained in Formulation Example 14, flupyradifurone liquid formulation (20.0% liquid formulation, trade name: SIVANTO200, Bayer CropScience), thiacloprid flowable formulation (40.0% flowable formulation, trade name: Sonido, Bayer CropScience), thiamethoxam flowable formulation (47.6% flowable formulation, trade name: Cruiser 5FS, Syngenta Crop Protection LCC), so that the soybean seeds retain the present bacterial strain and the compound in the amount shown in Table 5.
Twenty Aphis gossypii were released on the 14th day after the seeding, and the number of living Aphis gossypii was counted on the 5th day after the release. Similar procedures were conducted using untreated soybean seeds, instead of the treated soybean seeds, as described above for the treated compartment (“untreated compartment”).
as §2, with “compartment−number” for “compartment number”
as §1

CN/C(=N\[N+](=O)[O-])NCc1cnc(Cl)s1 [Clothianidin, clothianidin]
Controlling Effect ([1]; corn seeds retaining 0.6 g /Kg seeds): 41.4 | Controlling Effect ([1]; corn seeds retaining 1.2 g /Kg seeds): 64.3

O=C1C=C(N(Cc2ccc(Cl)nc2)CC(F)F)CO1 [Flupyradifurone, flupyradifurone]
Controlling Effect (Aphis gossypii; soybean seeds retaining 0.2 g /Kg seeds): 65.9 | Controlling Effect (Aphis gossypii; soybean seeds retaining 0.4 g /Kg seeds): 77.6

O=[N+]([O-])NC1=NCCN1Cc1ccc(Cl)nc1 [Imidacloprid, imidacloprid]
Controlling Effect ([1]; corn seeds retaining 2.0 g /Kg seeds): 51.4 | Controlling Effect ([1]; corn seeds retaining 2.5 g /Kg seeds): 62.8

N#C/N=C1\SCCN1Cc1ccc(Cl)nc1 [Thiacloprid, thiacloprid]
Controlling Effect (Aphis gossypii; soybean seeds retaining 0.3 g /Kg seeds): 56.9 | Controlling Effect (Aphis gossypii; soybean seeds retaining 0.45 g /Kg seeds): 69.0

CN1COCN(Cc2cnc(Cl)s2)/C1=N\[N+](=O)[O-] [Thiamethoxam, thiamethoxam]
Controlling Effect (Aphis gossypii; soybean seeds retaining 0.15 g /Kg seeds): 70.6 | Controlling Effect (Aphis gossypii; soybean seeds retaining 0.25 g /Kg seeds): 78.4
